ChEMBL document CHEMBL1128166, “Synthesis and antiviral activity of rigid acyclonucleotide analogs” (Bioorg Med Chem Lett, 1995)

Tests used:
MT4 [1] = test: Concentration required to inhibit HIV-1-induced cytopathic effect by 50% in MT-4 cells; type: functional, cell-based; details: Homo sapiens
Vero [2] = test: Anti-herpes virus activity was evaluated against Herpes simplex virus type 2 (HSV-2,strain G) grown in Vero cells; type: functional, cell-based; details: Chlorocebus sabaeus
MT4 [3] = test: Cytotoxic concentration required to reduce the viability of MT-4 cells; type: functional; details: Homo sapiens
C8166 = test: Concentration required to inhibit p24 viral antigen production by 50% in C-8166 cells; type: functional, cell-based; details: Homo sapiens
Vero [4] = test: Anti-herpes virus activity was evaluated against Herpes simplex virus type 1 (HSV-1,strain HF) grown in Vero cells; type: functional, cell-based; details: Chlorocebus sabaeus
MRC5 [5] = test: Anti-herpes virus activity was evaluated against human cytomegalovirus (HCMV, strain AD-169) grown in MRC-5 cells; type: functional, cell-based
MRC5 [6] = test: The lowest concentration of compound producing overt cytotoxicity in virus-free MRC-5 cell cultures; type: functional; details: Homo sapiens
Vero [7] = test: The lowest concentration of compound producing overt cytotoxicity in virus-free vero cell cultures; type: functional; details: Chlorocebus sabaeus
[8] = tested on: Guanylate kinase (Sus scrofa); test: Percent efficiency phosphorylated by guanylate kinase taken from hog brain
[9] = substrate: C=C(COCP(=O)(O)O)Cn1cnc2c(O)nc(N)nc21; test: (§1) Michaelis-Menten constant (Km) for guanylate kinase was determined; details: Sus scrofa
[10] = substrate: Nc1nc2c(ncn2[C@@H]2O[C@H](COP(=O)(O)O)[C@@H](O)[C@H]2O)c(=O)[nH]1; test: as §1
[11] = substrate: C=C(COCP(=O)(O)O)Cn1cnc2c(O)nc(N)nc21; test: Vmax for guanylate kinase was determined; details: Sus scrofa

| Molecule | EC50 (MT4 [1]) [µM] | EC50 (Vero [2]) [µM] | CC50 (MT4 [3]) [µM] | EC50 (C8166) [µM] | EC50 (Vero [4]) [µM] | EC50 (MRC5 [5]) [µM] | CC50 (MRC5 [6]) [µM] | CC50 (Vero [7]) [µM] | Efficacy [8] [%] | Km [9] [µM] | Km [10] [µM] | Vmax [11] [%] |
| --- | --- | --- | --- | --- | --- | --- | --- | --- | --- | --- | --- | --- |
| Nc1ccn(C/C=C\COCP(=O)(O)O)c(=O)n1 | > 100 | > 250 | > 100 | > 100 | > 250 | > 250 | > 250 | > 250 |  |  |  |  |
| C=C(COCP(=O)(O)O)Cn1ccc(N)nc1=O | > 100 | > 250 | > 100 | > 100 | > 250 | > 250 | > 250 | > 250 |  |  |  |  |
| Nc1ncnc2c1ncn2C/C=C\COCP(=O)(O)O | 170 | > 250 | > 1000 | 38 | > 250 | > 250 | > 250 | ≥ 250 |  |  |  |  |
| Nc1ncnc2c1ncn2CCOCP(=O)(O)O [ADEFOVIR] | 22 | 69 | 187 | 1.7 | 58 | 36 | > 250 | ≥ 250 |  |  |  |  |
| C=C(COCP(=O)(O)O)Cn1cnc2c(O)nc(N)nc21 | 25 | > 250 | 1800 | 1.9 | > 250 | 34 | > 250 | > 250 | 0.6 |  |  |  |
| C=C(COCP(=O)(O)O)Cn1cnc2c(N)ncnc21 | > 100 | > 250 | > 1000 | > 100 | 36 | > 250 | > 250 | > 250 |  |  |  |  |
| Nc1nc(O)c2ncn(C/C=C\COCP(=O)(O)O)c2n1 | > 100 | > 250 | > 1000 | > 100 | 37 | > 250 | > 250 | > 250 |  |  |  |  |
| Cc1cn([C@H]2C[C@H](N=[N+]=[N-])[C@@H](CO)O2)c(=O)[nH]c1=O [ZIDOVUDINE] | 0.035 |  | 113 | 0.03 |  |  |  |  |  |  |  |  |
| Nc1ncnc2c1ncn2CC#CCOCP(=O)(O)O | > 100 | > 250 | 800 | > 100 | > 250 | > 250 | > 250 | ≥ 250 |  |  |  |  |
| Nc1ccn(CC#CCOCP(=O)(O)O)c(=O)n1 | > 100 | > 250 | > 100 | > 100 | > 250 | > 250 | > 250 | > 250 |  |  |  |  |
| Nc1nc2c(ncn2COCCO)c(=O)[nH]1 [ACYCLOVIR] |  | 3 |  |  | 6 | 18 | ≥ 100 | > 100 |  |  |  |  |
| Guanylate kinase (Homo sapiens), Q16774 (protein) MSGPRPVVLSGPSGAGKSTLLKRLLQEHSGIFGFSVSHTTRNPRPGEENGKDYYFVTREVMQRDIAAGDFIEHAEFSGNLYGTSKVAVQAVQAMNRICVLDVDLQGVRNIKATDLRPIYISVQPPSLHVLEQRLRQRNTETEESLVKRLAAAQADMESSKEPGLFDVVIINDSLDQAYAELKEALSEEIKKAQRTGA |  |  |  |  |  |  |  |  |  | 238 | 18 | 8 |
